Values quoted from earlier work in PMC10920834, “Synthesis, anticancer activity, and molecular docking of half-sandwich iron(II) cyclopentadienyl complexes with maleimide and phosphine or phosphite ligands” (Scientific Reports, 2024).

System: PBM cells
Conditions: cited from earlier work

O=C1C=CC(=O)[N-]1.[C-]#[O+].[Ru+2].c1cc[cH-]c1.c1ccc(P(c2ccccc2)c2ccccc2)cc1 [2a-Ru]
cytotoxicity toward PBM cells of ruthenium analogues, in words: non-toxic
